The values below come from patent US20240342143A1, “APPLICATION OF ALKALOID COMPOUND HIP IN TREATMENT OF CARDIAC TRAUMA” (HUZHOU COLLEGE, priority 2022, published 2024).

Molecules are shown by their SMILES.

What all share (assay type): cell-based
The subject of one series is p-JNK. The series is described as follows: Western blot of p-JNK/JNK expression in DOX-induced H9c2 cardiomyocytes. Conditions: FIG. 4; for expression level of p-JNK vs DOX model group: 1 h, then 2.5 μM DOX 24 h. The method, then: (§1) (2) From H9c2 cardiomyocytes which were treated with different tested seabuckthorn alkaloids for 1 h and then treated with 2.5 μM DOX for 24 h, proteins were extract. That is, the H9c2 cardiomyocytes were lysed and scraped, and the cell lysate were collected and centrifuged at 12,000 g for 15 min to collect the supernatant and discard the precipitate. The supernatant was stored at […], and quantified for proteins using the BCA method for later use. SDS-PAGE electrophoresis was performed by using 5% stacking gel (Step1: 80V, 30 min; Step2: 120V, 180 min). The membrane transfer was performed using a PVDF membrane for 30 min at 80 mA. Blocking and hybridization was performed by blocking in 5% nonfat milk powder for 1 h, incubating with a primary antibody overnight and incubating with a secondary antibody at room temperature for 1-2 h with gentle shaking. Development was performed by ECL reagent development. Expression levels of intracellular Caspase-3 and p-JNK/JNK proteins were observed using a gel imaging system.
A general note: In western blotting, separated proteins are transferred to a membrane and probed.

The next series concerns Cleaved-Caspase-3. The series is described as follows: Western blot of Cleaved-Caspase-3 expression in DOX-induced H9c2 cardiomyocytes. Conditions: FIG. 3. The method, then:
as §1

Another series concerns H9c2 cardiomyocytes. Briefly: Toxicity effect of Hip on H9c2 cardiomyocytes (MTT colorimetric method). Conditions: 24 h, FIG. 1. On the procedure: H9c2 cells were incubated with the alkaloid compound Hip at different concentrations (0.1μ, 1μ, 5μ, 10μ, 20μ, 40μ, 80μ, 160 μM) of for 24 h. The toxicity effect of the alkaloid compound on cardiomyocytes was evaluated by using the MTT colorimetric method.
In general terms: Formazan colour is commonly taken as a measure of viable cells.

Series [1] deals with DOX-induced H9c2 cardiomyocytes. Briefly: Effect of Hip on DOX-induced H9c2 cardiomyocyte toxicity (MTT colorimetric method). To be noted: 1 h pre-incubation, then 2.5 μM DOX 24 h, FIG. 2. On the procedure:
(1) H9c2 cells were pre-incubated with the alkaloid compound Hip for 1 h, and then added with 2.5 μM doxorubicin (DOX) for 24 h. The effect of the alkaloid compound Hip for DOX-induced cardiomyocyte apoptosis activity was screened by using the MTT colorimetric method. The optimal concentration range for action was determined.

The mark [2] stands for this setting: 2.5 μM DOX 24 h, DOX model group.

For the compound `COc1cccc2c1C(=O)c1c(O)c3c(c(O)c1C2=O)C[C@@](O)(C(=O)CO)C[C@@H]3O[C@H]1C[C@H](N)[C@H](O)[C@H](C)O1` [DOX, doxorubicin, reference compound], the “expression level of p-JNK vs Con group” value in the series on p-JNK (setting [2]) is recorded as “can significantly increase the expression level of p-JNK”. In addition, in the series with Cleaved-Caspase-3 (setting [2]), the “expression level of Cleaved-Caspase-3 vs Con group” value is given as “can significantly increase the expression level of Cleaved-Caspase-3”.

With `O=C1CC[C@H]2c3[nH]c4ccc(O)cc4c3CCN12` [Hip, Hippophamide], the “expression level of p-JNK vs DOX model group” value was “extremely significant differences” with p-JNK (Hip high-dose group 40 μM), “no statistical difference” with p-JNK (Hip low-dose group 10 μM) and “extremely significant differences” in the series on p-JNK (Hip middle-dose group 20 μM). Further, the figures for the “viability of H9c2 cells vs Con group” value with H9c2 cardiomyocytes (Hip 80 μM) and in the series on H9c2 cardiomyocytes (Hip 0.1~40 μM) were “a significant difference compared with the Con group” and “no statistical difference compared with the Con group”, respectively. Besides, in the series on Cleaved-Caspase-3 (Hip 10 μM, 20 μM and 40 μM, 1 h, then 2.5 μM DOX 24 h), the “expression level of Cleaved-Caspase-3 vs DOX model group” value was “can decrease the increased level of Cleaved-Caspase-3 caused by DOX to varying degree”. In addition, the “difference from DOX model group in DOX-induced myocardial cytotoxicity” value in series [1] (Hip 5-80 μM) is recorded as “significantly or extremely significant different”. Moreover, the “inhibition of DOX-induced myocardial cytotoxicity vs DOX model group” value in series [1] (different Hip concentrations) is “can inhibit DOX-induced myocardial cytotoxicity”.
